This is an account of results in PubChem BioAssay AID686998 (Broad Institute, 2013).

The test has as its system Cryptococcus neoformans growth, Alamar Blue, 24 h. As to the kind of experiment: Cryptococcus neoformans growth inhibition, dose response, Alamar Blue, cherry-picks (AID 686998). For orientation: Alamar Blue is a resazurin reagent that responds to reducing activity.

Several values for one entry are separate records, joined by “and”; a condition that tells them apart may be missing. Equal entries are not always repeated. Records with an inconclusive call do not appear. Activity calls are given as the source filed them.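 Rule for the calls: active = falling signal with fitted half-maximal potency no higher than twice the top valid tested dose; inconclusive = poor fit quality, or flat fit spanning -70% to -30%; inactive = potency over limit, rising signal, or flat fit inside 30%.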 Bounds are passed on as bounds.

Regarding `S=C(NCCc1cccc(Cl)c1)NC1CCCCC1`, the half-maximal inhibitory concentration (IC50) is 6.69 µM.

For the compound `COc1cccc(NC(=O)CN2CCN(S(=O)(=O)c3ccc(C(C)C)cc3)CC2)c1`, the IC50 is > 70 µM (inactive).

As for `S=C(NCc1ccccc1)NCC1COc2ccccc2O1` (stereo not drawn), the concentration for half-maximal inhibition (IC50) was 21 µM.

With `C[C@@H]1CN([C@H](C)CO)C(=O)c2ccccc2-c2ccccc2CO[C@H]1CN(C)S(=O)(=O)c1cccc(C#N)c1`, the IC50 was 66.7 µM.

As for `Fc1ccc(CNC(=S)NCc2cccc(Cl)c2)cc1`, the IC50 is 12.3 µM.

As for `CC(=O)OC1(C)CC(C)C(=O)C(C(O)CC2CC(=O)NC(=O)C2)C1` (stereo not drawn), the half-inhibitory concentration (IC50) was under 0.26 µM.

On to `CC(NC(=O)COc1ccccc1C(C)(C)C)c1ccccc1` (stereo not drawn), for which the IC50 is 3.83 µM.

As for `COc1ccc(CN(C)C[C@@H]2Oc3ccc(NS(C)(=O)=O)cc3CC(=O)N([C@H](C)CO)C[C@H]2C)cc1`, the IC50 is 48.6 µM.

In the case of `COc1cc2c(C(=O)N(C)c3cc(Cl)ccc3OC)cn(C)c(=O)c2cc1OC`, the IC50 was 0.383 µM.

Take `Cc1noc(C)c1NC(=O)N(C)C[C@H]1OCCCC[C@@H](C)Oc2ccc(NC(=O)NC(C)C)cc2C(=O)N([C@H](C)CO)C[C@H]1C`: the IC50 is > 70 µM (inactive).

Take `Cc1cc(C)c(NC(=O)CN(C2CCCCC2)C2CCCCC2)c(C)c1`: the IC50 is 32.9 µM.

Regarding `CCCn1c(=S)[nH]c2cc(Cl)ccc21`, the IC50 was 22.9 µM.

As for `C[C@H]1CN([C@@H](C)CO)C(=O)Cc2cc(NC(=O)C3CC3)ccc2O[C@@H]1CN(C)C(=O)Nc1cccc2ccccc12`, the IC50 is 53.6 µM.

For `NC(=S)N/N=C/c1ccc(-c2cc(Cl)ccc2Cl)o1`, the half-inhibitory concentration (IC50) is 4.48 µM.

As to `C[C@H](CO)N1C[C@H](C)[C@H](CN(C)Cc2ccc(Cl)c(Cl)c2)Oc2c(NC(=O)Nc3ccccc3)cccc2C1=O`, the concentration for half-maximal inhibition (IC50) is 10.8 µM.

On to `Cc1noc(C)c1NC(=O)N(C)C[C@H]1Oc2ccc(NC(=O)C3CC3)cc2CC(=O)N([C@@H](C)CO)C[C@H]1C`, for which the IC50 was > 70 µM (inactive).

`COC(=O)C1=C(C)N(Cc2ccc(Cl)cc2)C(=S)NC1c1cccc(Cl)c1` (stereo not drawn): the IC50 is 15.1 µM.

Take `COC(=O)C1=C(C)N(Cc2ccc(Cl)cc2)C(=S)NC1c1cccc(OC)c1` (stereo not drawn): the IC50 was 6.55 µM and 8.91 µM.

`Cc1cc(C(=O)Nc2cccc3c2O[C@@H](CN(C)S(=O)(=O)c2ccccc2)[C@@H](C)CN([C@@H](C)CO)C3=O)n(C)n1`: the 50% inhibitory concentration (IC50) was 61.2 µM.

In the case of `N#C[C@H]1[C@@H](c2ccc(C#CCC3CCCC3)cc2)[C@@H](CO)N1C(=O)c1ccccn1`, the half-inhibitory concentration (IC50) is 25.9 µM.

As for `Cc1noc(C)c1NC(=O)N(C)C[C@@H]1Oc2ccc(NC(=O)NC(C)C)cc2CC(=O)N([C@@H](C)CO)C[C@@H]1C`, the IC50 was > 70 µM (inactive).

Consider `C[C@@H]1CN([C@H](C)CO)C(=O)Cc2cc(NC(=O)NC3CCCCC3)ccc2O[C@@H]1CN(C)Cc1ccccc1`, for which the IC50 is > 70 µM (inactive).

Turning to `Cc1ccc(C2CC(c3cccs3)=NN2C(=O)c2ccc(Br)o2)cc1` (stereo not drawn), the IC50 was 0.375 µM.

For `CNC[C@@H]1Oc2ccc(NS(=O)(=O)c3ccc(Cl)cc3)cc2C(=O)N([C@H](C)CO)C[C@H]1C`, the 50% inhibitory concentration (IC50) was 46.4 µM.

On to `Cc1ccc(/C=C2\SC(=S)N(NS(=O)(=O)c3ccc(C)cc3)C2=O)cc1`, for which the IC50 was 12.7 µM.

Consider `COc1ccc(NC(=O)CN2CCN(S(=O)(=O)c3ccc(C(C)C)cc3)CC2)cc1OC`, for which the IC50 was 43.7 µM.

With `COC(=O)C1=C(C)N(Cc2ccc(F)cc2)C(=S)NC1c1cccc(F)c1` (stereo not drawn), the 50% inhibitory concentration (IC50) was 22.1 µM.

As to `CC(=O)N[C@H]1CC[C@H](CCNC(=O)C2CCC2)O[C@@H]1CO`, the IC50 is > 70 µM (inactive).

One may read the IC50 as the concentration that gives 50% inhibition.
